Experimental data from patent US4282247A, “5-(2-Hydroxy-3-thiopropoxy) chromone-2-carboxylic acids chemical process and pharmaceutical compositions” (CM Industries, priority 1979, dated 1981).
Structures can show the parent of a compound that is named as a salt. Where two headings read alike, the source gives them in different places.

Experiments:
[1] = tested on: passive cutaneous anaphylaxis; test: Inhibition of passive cutaneous anaphylaxis in rats (oral), % versus controls; assay type: in vivo; conditions: rat, os
Procedure: The 5-(2-hydroxy-3-thiopropoxy)chromone-2-carboxylic acids, their salts and their esters have been tested in rats by oral route to evaluate their ability to inhibit passive cutaneous anaphylaxis in animals sensitized to egg albumin and Bordetella pertussis.
The percentages of inhibition, in comparison with the controls, of the allergic reaction induced by passive cutaneous anaphylaxis in rats treated with 0.1 ml of an homologous antiserum diluted 1/10 and injected by intradermal route, are summarized in table I.

LD50 mouse, os = conditions: in vivo, po
[2] = tested on: passive cutaneous anaphylaxis; test: ED50 for inhibition of passive cutaneous anaphylaxis in rats sensitized to egg albumin and Bordetella pertussis, oral and intravenous; assay type: in vivo; conditions: Table IV, rat
Text: The ability of the 5-(2-hydroxy-3-thiopropoxy) chromone-2-carboxylic acids of the present invention and of the salts and esters thereof of inhibiting--by oral as well as by intravenous route--the passive cutaneous anaphylaxis in rats sensitized to egg albumin and Bordetella pertussis has been compared to that of two reference compounds: […]

[3] = po, Table I, °° P ≤ 0.01, ° P ≤ 0.05 (product B), read-out: Δ % in comparison with controls (inhibition of passive cutaneous anaphylaxis)
[4] = po, Table III, 10 mg/kg, °° P ≤ 0.01, * non significant (product D), read-out: Δ % in comparison with controls (inhibition of passive cutaneous anaphylaxis)
[5] = po, Table III, °° P ≤ 0.01, * non significant (product D), read-out: Δ % in comparison with controls (inhibition of passive cutaneous anaphylaxis)
[6] = po, Table I, °° significant P ≤ 0.01, read-out: Δ % in comparison with controls (inhibition of passive cutaneous anaphylaxis)

Q: For `CCOC(=O)c1cc(=O)c2c(OCC(O)CSC)cccc2o1` (stereo not shown) [CM 57201, ethyl 5-(2-hydroxy-3-methylthiopropoxy)chromone-2-carboxylate], which “Δ % in comparison with controls (inhibition of passive cutaneous anaphylaxis)” value ([1]; Table II, 10 mg/kg, °° P ≤ 0.01, * non significant (product C)) is on record?
A: -65.55%

Q: And the change in vivo at 10 mg/kg ([1]; po, Table I, 10 mg/kg, °° significant P ≤ 0.01, read-out: Δ % in comparison with controls (inhibition of passive cutaneous anaphylaxis))?
A: -65.5%

Q: And the change in vivo at 100 mg/kg [1, 3]?
A: -75.1%

Q: What about the LD50 (LD50 mouse, os) of the same molecule?
A: > 1000 mg/kg

Q: What about the ED50 ([2]; i.v., read-out: ED50) of the same molecule?
A: 0.11 mg/kg

Q: And the ED50 ([2]; po, os, read-out: ED50)?
A: 5.39 mg/kg

Q: With `CSCC(O)COc1ccc2c(=O)cc(C(=O)O)oc2c1` (stereo not shown) [product D, 7-(2-hydroxy-3-methylthiopropoxy)chromone-2-carboxylic acid, reference compound] as the molecule, how does the change in vivo at 10 mg/kg [1, 4] read?
A: 17.8%

Q: And the change in vivo at 100 mg/kg [1, 5]?
A: -16.2%

Q: And the change in vivo at 200 mg/kg ([1]; po, Table III, 200 mg/kg, ° significant P ≤ 0.05, read-out: Δ % in comparison with controls (inhibition of passive cutaneous anaphylaxis))?
A: -30.1%

Q: With `CCOC(=O)c1cc(=O)c2c(OCC(O)COC)cccc2o1` (stereo not shown) [product C, ethyl 5-(2-hydroxy-3-methoxypropoxy)chromone-2-carboxylate, reference compound] as the molecule, how does the change in vivo at 10 mg/kg ([1]; po, Table II, 10 mg/kg, °° P ≤ 0.01, * non significant (product C), read-out: Δ % in comparison with controls (inhibition of passive cutaneous anaphylaxis)) read?
A: 8.71%

Q: With `O=C(O)c1cc(=O)c2c(OCC(O)COc3cccc4oc(C(=O)O)cc(=O)c34)cccc2o1` [Product E, 1,3-bis-(2-carboxy-5-chromonyloxy)propane-2-ol sodium salt, reference compound] as the molecule, how does the ED50 ([2]; i.v., read-out: ED50) read?
A: 1.15 mg/kg

Q: And the ED50 ([2]; os)?
A: inactive

Q: For `CC(=O)c1ccc(O)c(C(=O)O)c1` [product B, 5-acetylsalicylic acid, reference compound], which change in vivo at 100 mg/kg [1, 3] is on record?
A: -29.2%

Q: And the LD50 (LD50 mouse, os)?
A: ~1000 mg/kg

Q: What does the source list for `CCCSCC(O)COc1cccc2oc(C(=O)OCC)cc(=O)c12` (stereo not shown) [CM 57251, Ethyl 5-(2-hydroxy-3-propylthiopropoxy)chromone-2-carboxylate]?
A: change in vivo at 100 mg/kg [1, 3]: -69.1%; LD50 (LD50 mouse, os): > 1000 mg/kg

Q: With `O=C(O)c1ccc2oc3ccc(OCCO)cc3c(=O)c2c1` [product A, 7-(2-hydroxyethoxy)-9-oxoxanthene-2-carboxylic acid, reference compound] as the molecule, how does the change in vivo at 100 mg/kg [1, 3] read?
A: -66.2%

Q: What about the LD50 (LD50 mouse, os) of the same molecule?
A: ~1000 mg/kg

Q: For `N#Cc1ccc(OCC(O)COc2cccc3oc(C(=O)O)cc(=O)c23)cc1` (stereo not shown) [Product F, 5-(2-hydroxy-3-p-cyanophenoxypropoxy)chromone-2-carboxylic acid, reference compound], which ED50 ([2]; i.v., read-out: ED50) is on record?
A: 0.29 mg/kg

Q: What about the ED50 ([2]; os) of the same molecule?
A: inactive

Q: Which change in vivo at 50 mg/kg [1, 6] does the source give for `CCCCSCC(O)COc1cccc2oc(C(=O)OCC)cc(=O)c12` (stereo not shown) [CM 57193, Ethyl 5-(2-hydroxy-3-butylthiopropoxy)chromone-2-carboxylate] here?
A: -47.6%

Q: And the change in vivo at 100 mg/kg [1, 3]?
A: -70.8%

Q: And the LD50 (LD50 mouse, os)?
A: > 1000 mg/kg

Q: Which change in vivo at 100 mg/kg [1, 3] does the source give for `CCCCSCC(O)COc1cccc2oc(C(=O)O)cc(=O)c12.O` (stereo not shown) [CM 57194, 5-(2-hydroxy-3-butylthiopropoxy)chromone-2-carboxylic acid monohydrate] here?
A: -55.4%

Q: What about the LD50 (LD50 mouse, os) of the same molecule?
A: > 1000 mg/kg

Q: Which change in vivo at 50 mg/kg [1, 6] does the source give for `CCOC(=O)c1cc(=O)c2c(OCC(O)CSCC)cccc2o1` (stereo not shown) [CM 57249, Ethyl 5-(2-hydroxy-3-ethylthiopropoxy)chromone-2-carboxylate] here?
A: -73%

Q: And the change in vivo at 100 mg/kg [1, 3]?
A: -75.8%

Q: And the LD50 (LD50 mouse, os)?
A: > 1000 mg/kg

Q: With `CSCC(O)COc1cccc2oc(C(=O)O)cc(=O)c12` (stereo not shown) [CM 57202, 5-(2-hydroxy-3-methylthiopropoxy)chromone-2-carboxylic acid] as the molecule, how does the change in vivo at 10 mg/kg [1, 4] read?
A: -53%

Q: And the change in vivo at 100 mg/kg [1, 5]?
A: -70.4%

Q: What about the ED50 ([2]; i.v., read-out: ED50) of the same molecule?
A: 0.13 mg/kg

Q: And the ED50 ([2]; po, os, read-out: ED50)?
A: 38.1 mg/kg

Q: Which change in vivo at 100 mg/kg [1, 3] does the source give for `CCOC(=O)c1cc(=O)c2c(OCC(O)CSC(C)C)cccc2o1` (stereo not shown) [CM 57215, Ethyl 5-(2-hydroxy-3-isopropylthiopropoxy)chromone-2-carboxylate] here?
A: -75%

Q: And the LD50 (LD50 mouse, os)?
A: > 1000 mg/kg
